Source: ChEMBL document CHEMBL1201862, “PubChem BioAssay data set” (2004)
The source made the active and inactive calls.

Experiments:
[1] = target: Mu-type opioid receptor (Homo sapiens, UniProt P35372); format: functional, cell-based;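 note: U2OS cells with beta-arrestin recruitment to OPRM1 by beta-gal complementation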
[2] = target: 5-hydroxytryptamine receptor 2A (Mus musculus, UniProt P35363); format: functional, cell-based;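 note: CHO-K1 cells with tagged receptor and beta-arrestin; agonist potency measured as compound-induced activation of the receptor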
[3] = target: ADP-ribosylation factor GTPase-activating protein 1 (Rattus norvegicus, UniProt Q62848); assay: Fluorescence polarization-based biochemical high throughput dose response screening assay to identify inhibitors of ADP-ribosylation factor GTPase activating protein 1 (ARFGAP1).; format: functional
[4] = target: Arf-GAP with SH3 domain, ANK repeat and PH domain-containing protein 1 (Homo sapiens, UniProt Q9ULH1); format: functional;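 note: biochemical fluorescence polarization dose–response screen measuring inhibition of ASAP1; ASAP1 GAP domain stimulating GTP hydrolysis by truncated human ARF1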
[5] = target: T1, Heat shock factor protein 1 (Mus musculus, UniProt P38532); assay: decrease of HSF1-responsive luciferase luminescence – cell-based, NIH3T3, dose retest, confirmation (AID 2382); format: functional;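 note: NIH3T3 fibroblasts with HSF1-driven luciferase reporter stressed by proteasome inhibitor MG132; luminescence from HSF1-driven luciferase expression after 8 hours of MG132 stress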
T1 sequence (P38532 whole entry): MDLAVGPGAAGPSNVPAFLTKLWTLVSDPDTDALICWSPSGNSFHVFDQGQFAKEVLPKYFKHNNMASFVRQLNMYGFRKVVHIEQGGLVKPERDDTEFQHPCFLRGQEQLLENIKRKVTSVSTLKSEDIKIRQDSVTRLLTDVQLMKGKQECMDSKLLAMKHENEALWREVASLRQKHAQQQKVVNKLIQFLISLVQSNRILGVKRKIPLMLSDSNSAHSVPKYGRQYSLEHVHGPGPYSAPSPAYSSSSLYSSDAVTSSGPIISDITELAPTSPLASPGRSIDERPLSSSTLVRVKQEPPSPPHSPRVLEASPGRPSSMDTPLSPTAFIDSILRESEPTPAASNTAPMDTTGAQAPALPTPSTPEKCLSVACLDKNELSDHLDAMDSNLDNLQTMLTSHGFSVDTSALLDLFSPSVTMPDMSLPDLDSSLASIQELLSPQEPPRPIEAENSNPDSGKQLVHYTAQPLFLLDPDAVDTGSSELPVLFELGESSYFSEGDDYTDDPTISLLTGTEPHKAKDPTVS

[6] = target: Botulinum neurotoxin type F (Clostridium botulinum, UniProt P30996); assay: High-throughput multiplex microsphere dose response for inhibitors of toxin protease, specifically Botulinum neurotoxin light chain F protease, compounds from Cherry Pick 02.; format: functional; conditions: read-out: EC50_MICROM
[7] = target: Lethal factor (Bacillus anthracis, UniProt P15917); assay: High-throughput multiplex microsphere dose response for inhibitors of toxin protease, specifically Lethal Factor protease, compounds from Cherry Pick 02.; format: functional; conditions: read-out: EC50_MICROM
[8] = target: T2, Protein skinhead-1 (Caenorhabditis elegans, UniProt P34707); format: functional
T2 sequence (P34707 whole entry): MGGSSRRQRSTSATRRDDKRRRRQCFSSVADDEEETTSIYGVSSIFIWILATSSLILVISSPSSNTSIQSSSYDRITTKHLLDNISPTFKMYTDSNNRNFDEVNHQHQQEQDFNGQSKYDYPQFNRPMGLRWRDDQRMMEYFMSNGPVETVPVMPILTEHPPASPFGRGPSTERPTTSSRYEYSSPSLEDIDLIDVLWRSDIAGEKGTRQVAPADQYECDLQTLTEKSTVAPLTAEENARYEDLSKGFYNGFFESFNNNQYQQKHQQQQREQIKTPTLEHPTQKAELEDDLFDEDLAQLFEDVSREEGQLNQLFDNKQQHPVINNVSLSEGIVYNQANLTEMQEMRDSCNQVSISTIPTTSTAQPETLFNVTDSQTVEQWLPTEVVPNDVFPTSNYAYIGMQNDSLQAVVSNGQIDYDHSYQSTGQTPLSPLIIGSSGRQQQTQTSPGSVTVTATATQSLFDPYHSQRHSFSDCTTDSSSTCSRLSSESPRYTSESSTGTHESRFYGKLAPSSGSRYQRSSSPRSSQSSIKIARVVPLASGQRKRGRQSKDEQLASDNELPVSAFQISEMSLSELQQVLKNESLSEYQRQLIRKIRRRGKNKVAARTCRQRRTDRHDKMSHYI

[9] = cells; format: functional
[10] = target: Beta-lactamase (Salmonella choleraesuis (strain SC-B67), UniProt Q5J463)
[11] = target: Beta-lactamase (Pseudomonas aeruginosa, UniProt Q79MP6);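 note: biochemical dose-response test of metallo-beta-lactamase enzyme inhibition, read out by epi-absorbance; purified recombinant IMP-1 metallo-beta-lactamase with nitrocefin as substrate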
[12] = system: Vero; assay: viability loss in Vero cells – cell-based, plate reader, cherry-pick samples, cytotoxicity control, dose response (AID 687020); format: functional; conditions: Chlorocebus sabaeus
[13] = target: T3, Tyrosine-protein phosphatase non-receptor type 11 (Homo sapiens, UniProt Q06124); assay: PTPN11 enzyme inhibitors – biochemical, selectivity assay for STEP inhibitor project, dose response (AID 602367); format: functional; conditions: read-out: IC50_Mean
T3 sequence (Q06124 whole entry): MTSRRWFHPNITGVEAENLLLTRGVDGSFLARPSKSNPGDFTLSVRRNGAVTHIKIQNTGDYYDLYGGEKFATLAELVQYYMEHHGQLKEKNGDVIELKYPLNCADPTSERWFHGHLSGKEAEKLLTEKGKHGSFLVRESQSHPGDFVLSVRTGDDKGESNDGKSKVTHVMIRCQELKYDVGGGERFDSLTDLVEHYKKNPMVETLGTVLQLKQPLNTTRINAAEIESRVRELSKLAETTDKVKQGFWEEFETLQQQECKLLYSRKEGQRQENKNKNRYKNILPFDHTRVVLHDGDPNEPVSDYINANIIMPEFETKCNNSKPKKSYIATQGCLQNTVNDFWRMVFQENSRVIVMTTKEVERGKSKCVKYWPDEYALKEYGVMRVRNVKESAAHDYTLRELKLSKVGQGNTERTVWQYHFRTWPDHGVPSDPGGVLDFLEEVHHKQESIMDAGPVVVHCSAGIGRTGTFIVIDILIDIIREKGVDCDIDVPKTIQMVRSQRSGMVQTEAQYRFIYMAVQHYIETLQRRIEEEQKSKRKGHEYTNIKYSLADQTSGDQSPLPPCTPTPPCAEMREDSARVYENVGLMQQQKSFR

[14] = Luminescence Cell-Based Dose Confirmation HTS to Identify Activators of 5'UTR Stem-Loop Driven Alpha-Synuclein mRNA Translation in H4 Neuroglioblastoma Cells. [Related pubchem assays: 1829 (Project Summary), 1814 (Primary HTS)]; format: functional
[15] = target: T4, Tyrosine-protein phosphatase non-receptor type 5 (Homo sapiens, UniProt P54829); assay: PTPN5 enzyme inhibition – biochemical, fluorescence intensity, uHTS hits, confirmation (AID 602372); format: functional; conditions: read-out: IC50_Mean
T4 sequence (P54829 whole entry): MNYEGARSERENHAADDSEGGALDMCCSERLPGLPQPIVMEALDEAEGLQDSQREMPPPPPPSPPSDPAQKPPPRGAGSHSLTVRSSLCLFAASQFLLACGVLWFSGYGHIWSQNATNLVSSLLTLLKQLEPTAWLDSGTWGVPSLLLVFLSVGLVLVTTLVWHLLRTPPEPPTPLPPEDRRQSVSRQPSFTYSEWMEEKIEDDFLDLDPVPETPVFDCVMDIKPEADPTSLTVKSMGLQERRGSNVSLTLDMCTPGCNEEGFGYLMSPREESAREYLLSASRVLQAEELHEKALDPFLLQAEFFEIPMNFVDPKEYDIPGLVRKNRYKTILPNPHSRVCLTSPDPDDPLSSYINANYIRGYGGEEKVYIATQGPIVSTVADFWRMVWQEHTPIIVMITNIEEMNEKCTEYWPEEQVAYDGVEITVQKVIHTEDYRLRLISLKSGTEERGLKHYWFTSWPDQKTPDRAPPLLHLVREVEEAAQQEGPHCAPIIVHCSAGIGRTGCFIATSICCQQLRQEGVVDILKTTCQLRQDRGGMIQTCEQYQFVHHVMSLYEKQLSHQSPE

[16] = target: T5, Tyrosine-protein phosphatase non-receptor type 22 (Homo sapiens, UniProt Q9Y2R2); assay: lymphoid phosphatase LYP inhibitors – biochemical, selectivity assay for STEP inhibitor project, dose response (AID 624241); format: functional
T5 sequence (Q9Y2R2 whole entry): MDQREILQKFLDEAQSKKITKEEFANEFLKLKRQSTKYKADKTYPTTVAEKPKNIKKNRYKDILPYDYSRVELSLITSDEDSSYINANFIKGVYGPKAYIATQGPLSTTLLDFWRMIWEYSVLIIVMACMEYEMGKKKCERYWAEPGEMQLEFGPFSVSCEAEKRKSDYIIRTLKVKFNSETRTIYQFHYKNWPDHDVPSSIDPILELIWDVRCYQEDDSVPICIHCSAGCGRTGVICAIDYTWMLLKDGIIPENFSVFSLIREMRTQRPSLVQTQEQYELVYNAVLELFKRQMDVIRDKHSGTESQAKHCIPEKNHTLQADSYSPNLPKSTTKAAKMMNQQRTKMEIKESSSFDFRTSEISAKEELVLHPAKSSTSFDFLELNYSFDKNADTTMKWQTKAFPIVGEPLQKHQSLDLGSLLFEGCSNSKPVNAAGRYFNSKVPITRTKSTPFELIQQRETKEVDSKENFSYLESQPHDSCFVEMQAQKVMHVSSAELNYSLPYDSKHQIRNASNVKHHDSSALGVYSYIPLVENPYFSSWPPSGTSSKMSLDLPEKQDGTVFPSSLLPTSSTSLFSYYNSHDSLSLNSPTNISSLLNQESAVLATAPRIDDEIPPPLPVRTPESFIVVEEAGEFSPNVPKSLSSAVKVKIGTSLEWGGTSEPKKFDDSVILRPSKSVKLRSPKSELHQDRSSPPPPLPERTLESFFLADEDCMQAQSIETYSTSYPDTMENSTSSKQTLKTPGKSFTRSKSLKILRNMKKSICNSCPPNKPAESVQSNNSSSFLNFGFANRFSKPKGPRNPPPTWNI

[17] = system: H4; assay: Luminescence Cell-Based Dose Response HTS to Identify Activators of 5'UTR Stem-Loop Driven Prion Protein mRNA Translation in H4 Neuroglioblastoma Cells. [Related pubchem assays: 1829 (Project Summary), 1814 (Primary HTS)]; format: functional; conditions: Homo sapiens
[18] = target: T6, Carboxy-terminal domain RNA polymerase II polypeptide A small phosphatase 1 (Homo sapiens, UniProt Q9GZU7); assay: CTDSP1 inhibitors, concentration-response, biochemical, absorbance readout, ultra-high-throughput screen actives (AID 540297); format: functional
T6 sequence (Q9GZU7 whole entry): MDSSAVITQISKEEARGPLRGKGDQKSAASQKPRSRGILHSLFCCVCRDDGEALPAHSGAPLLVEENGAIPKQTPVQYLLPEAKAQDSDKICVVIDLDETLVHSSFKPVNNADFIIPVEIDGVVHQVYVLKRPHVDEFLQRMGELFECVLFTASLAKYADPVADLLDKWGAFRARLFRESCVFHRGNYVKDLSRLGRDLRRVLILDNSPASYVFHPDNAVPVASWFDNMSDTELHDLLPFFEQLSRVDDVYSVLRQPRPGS

[19] = Luminescence Cell-Based Dose Response HTS to Identify Activators of Luciferase Translation or Activity in H4 […] Cells. [Related pubchem assays: 1829 (Project Summary), 1814 (Primary HTS)]; format: functional
[20] = target: Dual specificity protein phosphatase 3 (Homo sapiens, UniProt P51452); assay: VHR phosphatase inhibition, dose response, selectivity assay for STEP inhibitor project, biochemical (AID 602374); format: functional; conditions: read-out: IC50_Mean
[21] = reduction of Shn3 3'UTR-driven luciferase in osteoblasts – cell-based, Clone20 osteoblasts, firefly luciferase, cherry-picked, dose response (AID 624132); format: functional;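 note: firefly luciferase luminescence from reporter carrying the Shn3 3'UTR in osteoblasts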
[22] = target: T7, Low molecular weight phosphotyrosine protein phosphatase (Homo sapiens, UniProt P24666); format: functional; conditions: read-out: IC50_Mean
T7 sequence (P24666 whole entry): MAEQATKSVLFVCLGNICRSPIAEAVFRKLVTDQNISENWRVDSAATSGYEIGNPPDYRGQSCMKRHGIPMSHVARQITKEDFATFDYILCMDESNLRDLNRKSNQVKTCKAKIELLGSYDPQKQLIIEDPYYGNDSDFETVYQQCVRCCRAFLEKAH

[23] = target: T5, Tyrosine-protein phosphatase non-receptor type 22; assay: PTPN22 enzyme inhibitors – biochemical, fluorescence, LYP catalytic domain, selectivity assay for LMPTP inhibitor project, dose response (AID 652006); format: functional; conditions: read-out: IC50_Mean
[24] = target: T7, Low molecular weight phosphotyrosine protein phosphatase; format: functional; conditions: read-out: IC50_Mean; remark: listed apart in the source
[25] = loss of viability in HepG2 cells – cell-based, CellTiter-Glo, cherry-picked, cytotoxicity control for Shn3 inhibitor project, dose response (AID 624134); format: functional
[26] = non-specific 3'UTR reporter inhibition in Clone20-Shn3RL – cell-based, Renilla luciferase, cherry-picked, counter-screen for Shn3 inhibitor project, dose response (AID 624133); format: functional
[27] = target: T8, Palmitoyl-protein thioesterase ABHD10, mitochondrial (Mus musculus, UniProt Q6PE15); assay: Late stage assay provider results from the probe development effort to identify inhibitors of PME-1: fluorescence-based dose response biochemical gel-based competitive Activity-Based Protein Profiling (ABPP) inhibition of ABHD10 Set 1.; format: functional
[28] = target: T8, Palmitoyl-protein thioesterase ABHD10, mitochondrial; assay: Late stage assay provider results from the probe development effort to identify inhibitors of PME-1: fluorescence-based dose response cell-based gel-based competitive Activity-Based Protein Profiling (ABPP) inhibition of ABHD10.; format: functional

T8 sequence (Q6PE15 whole entry): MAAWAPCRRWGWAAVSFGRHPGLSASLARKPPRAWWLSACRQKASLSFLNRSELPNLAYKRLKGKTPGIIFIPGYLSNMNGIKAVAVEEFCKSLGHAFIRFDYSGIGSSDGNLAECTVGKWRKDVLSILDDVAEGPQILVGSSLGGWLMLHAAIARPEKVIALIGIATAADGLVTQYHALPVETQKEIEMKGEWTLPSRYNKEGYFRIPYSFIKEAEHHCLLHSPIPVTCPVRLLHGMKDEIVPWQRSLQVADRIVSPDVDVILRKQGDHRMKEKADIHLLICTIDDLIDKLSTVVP
Chain of 5-hydroxytryptamine receptor 2A (P35363 whole entry): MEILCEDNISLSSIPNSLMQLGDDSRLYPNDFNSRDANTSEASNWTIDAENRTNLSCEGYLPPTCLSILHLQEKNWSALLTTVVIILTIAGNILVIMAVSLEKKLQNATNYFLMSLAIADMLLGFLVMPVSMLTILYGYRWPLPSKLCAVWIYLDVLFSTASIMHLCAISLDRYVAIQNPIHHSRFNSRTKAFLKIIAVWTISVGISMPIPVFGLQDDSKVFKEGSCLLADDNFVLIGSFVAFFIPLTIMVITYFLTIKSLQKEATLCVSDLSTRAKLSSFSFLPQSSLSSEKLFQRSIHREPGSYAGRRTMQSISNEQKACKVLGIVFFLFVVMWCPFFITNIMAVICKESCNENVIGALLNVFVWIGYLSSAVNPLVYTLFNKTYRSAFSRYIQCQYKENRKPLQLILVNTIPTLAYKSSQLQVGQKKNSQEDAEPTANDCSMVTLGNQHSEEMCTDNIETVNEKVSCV
Chain of Mu-type opioid receptor (P35372 whole entry): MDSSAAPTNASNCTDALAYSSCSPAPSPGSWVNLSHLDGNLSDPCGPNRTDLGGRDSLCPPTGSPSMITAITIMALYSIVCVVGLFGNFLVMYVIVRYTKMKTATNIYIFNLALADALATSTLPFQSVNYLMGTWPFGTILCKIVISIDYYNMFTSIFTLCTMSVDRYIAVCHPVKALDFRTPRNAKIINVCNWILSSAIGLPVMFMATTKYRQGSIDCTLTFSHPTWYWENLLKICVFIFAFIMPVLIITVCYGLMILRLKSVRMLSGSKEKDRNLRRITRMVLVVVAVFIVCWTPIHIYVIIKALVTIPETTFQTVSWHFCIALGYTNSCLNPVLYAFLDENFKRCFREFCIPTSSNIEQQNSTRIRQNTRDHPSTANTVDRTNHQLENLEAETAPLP
Chain of Beta-lactamase (Pseudomonas aeruginosa, UniProt Q79MP6) (Q79MP6 whole entry): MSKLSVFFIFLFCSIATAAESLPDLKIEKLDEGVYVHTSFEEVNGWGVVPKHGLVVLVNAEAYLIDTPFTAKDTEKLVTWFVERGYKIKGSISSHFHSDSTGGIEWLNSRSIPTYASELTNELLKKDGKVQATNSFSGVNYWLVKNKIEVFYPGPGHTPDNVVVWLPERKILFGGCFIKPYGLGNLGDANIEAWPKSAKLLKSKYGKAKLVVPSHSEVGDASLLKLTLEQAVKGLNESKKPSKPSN
Chain of Botulinum neurotoxin type F (P30996 1-436 limits assumed): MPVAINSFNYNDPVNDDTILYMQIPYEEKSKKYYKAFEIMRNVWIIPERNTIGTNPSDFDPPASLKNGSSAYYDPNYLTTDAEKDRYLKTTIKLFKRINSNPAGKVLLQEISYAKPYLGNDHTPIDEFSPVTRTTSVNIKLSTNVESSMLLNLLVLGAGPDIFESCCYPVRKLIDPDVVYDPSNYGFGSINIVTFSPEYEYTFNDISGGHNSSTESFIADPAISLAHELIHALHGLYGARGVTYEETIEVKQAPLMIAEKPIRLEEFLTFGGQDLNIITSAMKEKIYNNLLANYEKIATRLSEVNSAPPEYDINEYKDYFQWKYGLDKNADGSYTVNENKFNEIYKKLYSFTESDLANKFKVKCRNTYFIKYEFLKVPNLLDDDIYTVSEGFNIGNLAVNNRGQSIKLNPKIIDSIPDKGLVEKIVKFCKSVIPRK
Chain of Arf-GAP with SH3 domain, ANK repeat and PH domain-containing protein 1 (Q9ULH1 whole entry, the tested form may be a part): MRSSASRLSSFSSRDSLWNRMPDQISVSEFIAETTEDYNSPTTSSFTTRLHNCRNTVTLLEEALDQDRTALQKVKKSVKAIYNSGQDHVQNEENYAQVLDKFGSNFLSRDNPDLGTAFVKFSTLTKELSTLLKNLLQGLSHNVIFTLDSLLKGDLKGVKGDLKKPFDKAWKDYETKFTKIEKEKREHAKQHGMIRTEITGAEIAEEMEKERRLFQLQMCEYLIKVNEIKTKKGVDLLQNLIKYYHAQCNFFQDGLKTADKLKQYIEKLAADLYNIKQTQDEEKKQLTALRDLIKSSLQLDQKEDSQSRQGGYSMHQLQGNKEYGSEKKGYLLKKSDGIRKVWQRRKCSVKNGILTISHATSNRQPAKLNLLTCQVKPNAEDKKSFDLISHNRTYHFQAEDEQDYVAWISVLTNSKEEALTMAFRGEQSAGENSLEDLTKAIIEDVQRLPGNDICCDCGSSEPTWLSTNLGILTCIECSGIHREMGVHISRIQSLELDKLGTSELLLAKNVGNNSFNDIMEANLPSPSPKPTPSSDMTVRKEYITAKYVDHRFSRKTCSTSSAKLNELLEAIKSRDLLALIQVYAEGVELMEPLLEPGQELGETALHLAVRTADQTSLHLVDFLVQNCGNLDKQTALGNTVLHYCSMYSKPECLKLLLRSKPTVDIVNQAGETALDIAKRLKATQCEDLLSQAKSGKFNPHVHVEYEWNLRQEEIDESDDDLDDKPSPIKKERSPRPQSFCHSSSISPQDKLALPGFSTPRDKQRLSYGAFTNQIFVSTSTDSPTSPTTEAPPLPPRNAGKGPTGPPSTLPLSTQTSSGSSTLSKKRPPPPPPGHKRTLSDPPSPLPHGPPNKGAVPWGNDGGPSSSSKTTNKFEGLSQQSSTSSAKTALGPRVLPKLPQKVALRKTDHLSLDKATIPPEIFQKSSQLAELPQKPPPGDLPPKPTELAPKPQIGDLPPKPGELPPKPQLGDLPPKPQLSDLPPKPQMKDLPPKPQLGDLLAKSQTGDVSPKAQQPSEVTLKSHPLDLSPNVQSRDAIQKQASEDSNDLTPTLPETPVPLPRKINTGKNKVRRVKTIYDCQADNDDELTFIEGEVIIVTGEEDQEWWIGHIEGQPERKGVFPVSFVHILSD
Chain of ADP-ribosylation factor GTPase-activating protein 1 (Q62848 whole entry, the tested form may be a part): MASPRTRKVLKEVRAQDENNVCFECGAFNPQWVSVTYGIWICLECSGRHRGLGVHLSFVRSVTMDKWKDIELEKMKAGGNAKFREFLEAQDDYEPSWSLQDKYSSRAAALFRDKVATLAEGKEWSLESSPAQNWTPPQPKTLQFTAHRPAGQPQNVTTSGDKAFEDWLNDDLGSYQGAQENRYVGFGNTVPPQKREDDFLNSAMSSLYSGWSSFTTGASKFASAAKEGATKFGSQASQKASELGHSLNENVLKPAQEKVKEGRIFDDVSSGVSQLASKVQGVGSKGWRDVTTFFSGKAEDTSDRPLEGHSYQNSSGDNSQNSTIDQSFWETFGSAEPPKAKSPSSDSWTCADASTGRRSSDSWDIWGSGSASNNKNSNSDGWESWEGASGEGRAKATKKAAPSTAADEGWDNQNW
Chain of Dual specificity protein phosphatase 3 (P51452 whole entry): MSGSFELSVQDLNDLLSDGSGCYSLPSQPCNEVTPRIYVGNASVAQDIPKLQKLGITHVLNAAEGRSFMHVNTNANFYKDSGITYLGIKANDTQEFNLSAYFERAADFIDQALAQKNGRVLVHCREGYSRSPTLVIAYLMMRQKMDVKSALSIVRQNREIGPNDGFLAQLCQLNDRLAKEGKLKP
Chain of Lethal factor (P15917 whole entry): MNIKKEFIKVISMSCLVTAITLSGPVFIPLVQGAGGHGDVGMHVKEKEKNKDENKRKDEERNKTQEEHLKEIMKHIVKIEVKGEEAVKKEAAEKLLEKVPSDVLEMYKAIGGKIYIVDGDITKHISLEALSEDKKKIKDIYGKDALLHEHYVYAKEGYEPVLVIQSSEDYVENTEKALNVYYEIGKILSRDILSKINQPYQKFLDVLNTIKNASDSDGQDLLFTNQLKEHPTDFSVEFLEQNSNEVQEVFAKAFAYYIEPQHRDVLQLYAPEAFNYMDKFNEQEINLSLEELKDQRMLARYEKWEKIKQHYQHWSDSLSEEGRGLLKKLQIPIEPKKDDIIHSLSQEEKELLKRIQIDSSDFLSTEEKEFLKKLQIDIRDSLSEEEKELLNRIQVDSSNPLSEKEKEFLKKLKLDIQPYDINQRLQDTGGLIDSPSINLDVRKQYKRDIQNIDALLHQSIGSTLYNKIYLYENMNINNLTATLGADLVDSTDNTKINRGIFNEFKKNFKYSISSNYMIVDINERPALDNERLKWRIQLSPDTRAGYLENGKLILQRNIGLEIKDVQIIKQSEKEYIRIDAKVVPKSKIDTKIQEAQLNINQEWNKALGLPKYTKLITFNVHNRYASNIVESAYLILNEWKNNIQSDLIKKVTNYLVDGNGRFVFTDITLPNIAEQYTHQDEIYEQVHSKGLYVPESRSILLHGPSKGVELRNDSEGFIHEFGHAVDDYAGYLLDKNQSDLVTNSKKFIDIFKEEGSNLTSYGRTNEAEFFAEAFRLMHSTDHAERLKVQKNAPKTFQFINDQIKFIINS
Chain of Beta-lactamase (Salmonella choleraesuis (strain SC-B67), UniProt Q5J463) (Q5J463 whole entry): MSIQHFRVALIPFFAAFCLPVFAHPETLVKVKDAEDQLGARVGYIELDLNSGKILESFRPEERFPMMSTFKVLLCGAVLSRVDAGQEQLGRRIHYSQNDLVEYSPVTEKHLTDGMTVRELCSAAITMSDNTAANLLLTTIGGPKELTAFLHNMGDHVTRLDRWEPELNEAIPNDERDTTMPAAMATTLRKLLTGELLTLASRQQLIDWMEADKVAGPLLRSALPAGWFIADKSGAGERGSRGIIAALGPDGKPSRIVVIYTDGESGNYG

## O=[N+]([O-])c1cccc(CN2CCN(c3ncccn3)CC2)c1
[1]
  EC50: 92.5 µM (inactive)
[2]
  EC50: 22.3 µM (inactive)

## Cc1ccc(OCc2ccc(C(=O)Nc3ccc(C(N)=O)cc3)o2)c([N+](=O)[O-])c1
[3]
  IC50: 16.7 µM (inactive)
[4]
  IC50: 14 µM (inactive)

## Cc1cc2ccccc2n1CCNC(=O)C(C)C
[5]
  EC50: > 195 µM (not active)
[6]
  EC50: > 20 µM (inactive)
[7]
  EC50: 19.5 µM (active)
[8]
  IC50: 94.3 µM (inactive)

## CCN(CC)c1ccc2cc(C(=O)NCc3ccc(F)cc3)c(=N)oc2c1
[9]
  IC50: 2.12 µM (active)
[10]
  IC50: 28.1 µM (inactive)
[11]
  IC50: > 59.6 µM (inactive)

## O=C(Nc1ccccc1C(F)(F)F)C(O)(c1ccccc1)C1CCCCC1 (stereo not drawn)
[12]
  AC50: 36.8 µM (active)

## N#C/C(=C\c1ccc(OC(=O)c2ccc(Cl)s2)cc1)c1nc2ccccc2[nH]1
[13]
  IC50: 1.29 µM (active)
[14]
  EC50: 13.1 µM (active)
[15]
  IC50: 16.9 µM (active)
[16]
  IC50: 22.9 µM (inactive)
[17]
  EC50: 71.4 µM (active)
[18]
  IC50: 1.77 µM (active)
[19]
  EC50: 19.1 µM (active)
[20]
  IC50: 2.49 µM (active)

## COc1cccc(CNc2nc(NCC3CC3)nc3ccsc23)c1OC
[21]
  AC50: 4.48 µM (active)
[22]
  IC50: 12.3 µM (active)
[23]
  IC50: 33.3 µM (inactive)
[24]
  IC50: 11.5 µM (active)
[25]
  AC50: 34 µM (active)
[26]
  AC50: 23.6 µM (active)

## CC[C@@]1(c2ccc(C)cc2)C(=O)N(C(=O)OC(C)C)N1C(=O)OC(C)C
[27]
  IC50: 17 nM (active)
[28]
  IC50: 28 nM (active)
